Experimental data reported in US20220125051A1, “PRE-HARVEST DESICCATION METHOD” (SYNGENTA CROP PROTECTION AG, priority 2019, published 2022).
Read-outs that look alike come from different tables or passages of the source.

How the values were obtained:
Assay in all cases: Post-emergence efficacy, Method A
Format in all cases: in vivo
[1] = system: Amaranthus palmeri (AMAPA); conditions: Amaranthus palmeri, post-emergence, 312 h, evaluated after 13 days
Procedure: (§1) Seeds of a variety of test species were sown in standard soil in pots. After cultivation for 14 days (post-emergence) under controlled conditions in a glasshouse (at 24/16° C., day/night; 14 hours light; 65% humidity), the plants were sprayed with an aqueous spray solution derived from the dissolution of the technical active ingredient formula (I) in a small amount of acetone and a special solvent and emulsifier mixture referred to as IF50 (11.12% Emulsogen EL360 TM+44.44% N-methylpyrrolidone+44.44% Dowanol DPM glycol ether), to create a 50 g/I solution which was then diluted to required concentration using 0.25% or 1% Empicol ESC70 (Sodium lauryl ether sulphate)+1% ammonium sulphate as diluent. The test plants were then grown in a glasshouse under controlled conditions (at 24/16° C., day/night; 14 hours light; 65% humidity) and watered twice daily. After 13 days the test was evaluated (100=total damage to plant; 0=no damage to plant).
(§2) Ipomoea hederacea (IPOHE), Euphorbia heterophylla (EPHHL), Chenopodium album (CHEAL), Amaranthus palmeri (AMAPA), Lolium perenne (LOLPE), Digitaria sanguinalis (DIGSA), Eleusine indica (ELEIN), Echinochloa crus-galli (ECHCG), Setaria faberi (SETFA)

[2] = system: Chenopodium album (CHEAL); conditions: Chenopodium album, post-emergence, 312 h, evaluated after 13 days
Procedure: as §1, §2

[3] = system: Digitaria sanguinalis (DIGSA); conditions: Digitaria sanguinalis, post-emergence, 312 h, evaluated after 13 days
Procedure: as §1, §2

[4] = system: Echinochloa crus-galli (ECHCG); conditions: Echinochloa crus-galli, post-emergence, 312 h, evaluated after 13 days
Procedure: as §1, §2

Eleusine indica (ELEIN) = conditions: Eleusine indica, post-emergence, 312 h, evaluated after 13 days
Procedure: as §1, §2

[5] = system: Euphorbia heterophylla (EPHHL); conditions: Euphorbia heterophylla, post-emergence, 312 h, evaluated after 13 days
Procedure: as §1, §2

[6] = system: Ipomoea hederacea (IPOHE); conditions: Ipomoea hederacea, post-emergence, 312 h, evaluated after 13 days
Procedure: as §1, §2

Lolium perenne (LOLPE) = conditions: Lolium perenne, post-emergence, 312 h, evaluated after 13 days
Procedure: as §1, §2

Setaria faberi (SETFA) = conditions: Setaria faberi, post-emergence, 312 h, evaluated after 13 days
Procedure: as §1, §2

[7] = Application rate 500 g/Ha, 100=total damage to plant, 0=no damage to plant, read-out: Control of weed species after post-emergence application, AMAPA
[8] = Application rate 500 g/Ha, 100=total damage to plant, 0=no damage to plant, read-out: Control of weed species after post-emergence application, CHEAL
[9] = Application rate 500 g/Ha, 100=total damage to plant, 0=no damage to plant, read-out: Control of weed species after post-emergence application, DIGSA
[10] = Application rate 500 g/Ha, 100=total damage to plant, 0=no damage to plant, read-out: Control of weed species after post-emergence application, ECHCG
[11] = Application rate 500 g/Ha, 100=total damage to plant, 0=no damage to plant, read-out: Control of weed species after post-emergence application, ELEIN
[12] = Application rate 500 g/Ha, 100=total damage to plant, 0=no damage to plant, read-out: Control of weed species after post-emergence application, EPHHL
[13] = Application rate 500 g/Ha, 100=total damage to plant, 0=no damage to plant, read-out: Control of weed species after post-emergence application, IPOHE
[14] = Application rate 500 g/Ha, 100=total damage to plant, 0=no damage to plant, read-out: Control of weed species after post-emergence application, LOLPE
[15] = Application rate 500 g/Ha, 100=total damage to plant, 0=no damage to plant, read-out: Control of weed species after post-emergence application, SETFA
[16] = Application Rate 500 g/Ha, Method A, read-out: Control of weed species after post-emergence application, AMAPA (100=total damage to plant; 0=no damage to plant)
[17] = Application Rate 500 g/Ha, Method A, read-out: Control of weed species after post-emergence application, CHEAL (100=total damage to plant; 0=no damage to plant)
[18] = Application Rate 500 g/Ha, Method A, read-out: Control of weed species after post-emergence application, DIGSA (100=total damage to plant; 0=no damage to plant)
[19] = Application Rate 500 g/Ha, Method A, read-out: Control of weed species after post-emergence application, ECHCG (100=total damage to plant; 0=no damage to plant)
[20] = Application Rate 500 g/Ha, Method A, read-out: Control of weed species after post-emergence application, ELEIN (100=total damage to plant; 0=no damage to plant)
[21] = Application Rate 500 g/Ha, Method A, read-out: Control of weed species after post-emergence application, EPHHL (100=total damage to plant; 0=no damage to plant)
[22] = Application Rate 500 g/Ha, Method A, read-out: Control of weed species after post-emergence application, IPOHE (100=total damage to plant; 0=no damage to plant)
[23] = Application Rate 500 g/Ha, Method A, read-out: Control of weed species after post-emergence application, LOLPE (100=total damage to plant; 0=no damage to plant)
[24] = Application Rate 500 g/Ha, Method A, read-out: Control of weed species after post-emergence application, SETFA (100=total damage to plant; 0=no damage to plant)

SMILES | pest or weed control at 500 g/ha [1, 7] | pest or weed control at 500 g/ha [2, 8] | pest or weed control at 500 g/ha [3, 9] | pest or weed control at 500 g/ha [4, 10] | pest or weed control at 500 g/ha (Eleusine indica (ELEIN); [11]) | pest or weed control at 500 g/ha [5, 12] | pest or weed control at 500 g/ha [6, 13] | pest or weed control at 500 g/ha (Lolium perenne (LOLPE); [14]) | pest or weed control at 500 g/ha (Setaria faberi (SETFA); [15]) | pest or weed control at 500 g/ha [1, 16] | pest or weed control at 500 g/ha [2, 17] | pest or weed control at 500 g/ha [3, 18] | pest or weed control at 500 g/ha [4, 19] | pest or weed control at 500 g/ha (Eleusine indica (ELEIN); [20]) | pest or weed control at 500 g/ha [5, 21] | pest or weed control at 500 g/ha [6, 22] | pest or weed control at 500 g/ha (Lolium perenne (LOLPE); [23]) | pest or weed control at 500 g/ha (Setaria faberi (SETFA); [24])
COc1nc(-c2cc[n+](CCC(=O)[O-])nc2)ncc1C [Compound A106] | 80% | 20% | 60% | 50% | 80% | 20% | 10% | 60% | 60% |  |  |  |  |  |  |  |  | 
Cc1cc(-c2cc[n+](CCS(=O)(=O)[O-])nc2)ncn1 [Compound A117] | 90% | 90% | 70% | 90% | 90% | 100% | 80% | 50% | 100% |  |  |  |  |  |  |  |  | 
O=C(O)CC[n+]1ccc(-c2ncccc2Cl)cn1 [Compound A149] | 30% | 40% | 50% | 50% | 60% | 30% | 10% | 40% | 40% |  |  |  |  |  |  |  |  | 
Cc1cc(-c2ncccn2)cn[n+]1CCS(=O)(=O)[O-] [Compound A212, 2-(6-methyl-4-pyrimidin-2-yl-pyridazin-1-ium-1-yl)ethanesulfonate] |  |  |  |  |  |  |  |  |  | 100% | 100% | 90% | 70% | 90% | 100% | 30% | 70% | 80%
N#Cc1ccnc(-c2cc[n+](CCO)nc2)n1 [Compound A186] |  |  |  |  |  |  |  |  |  | 70% | 70% | 60% | 30% | 50% | 30% | 30% | 10% | 60%
Cc1nc(-c2cc[n+](CCS(=O)(=O)[O-])nc2)ncc1Cl [Compound A99] | 80% | 30% | 40% | 50% | 80% | 90% | 30% | 20% | 50% |  |  |  |  |  |  |  |  | 
COc1cnc(-c2cc[n+](CCCS(=O)(=O)[O-])nc2)cn1 [Compound A78] | 0% | 10% | 40% | 30% | 30% | 20% | 20% | 20% | 40% |  |  |  |  |  |  |  |  | 
